Values of other authors, collected in patent US20230381197A1, “COMPOSITIONS FOR NON-SURGICAL PREVENTION OF BOAR TAINT AND […]” (Insigna Inc., priority 2022, published 2023).

Tested on: Sertoli cells
Details: young male pigs

C[C@]12CC[C@@H]3c4ccc(O)cc4C[C@@H](CCCCCCCCC[S+]([O-])CCCC(F)(F)C(F)(F)F)[C@H]3[C@@H]1CC[C@@H]2O (some centres unmarked) [ICI 182,780]
duration of Sertoli cell proliferation and testis size: highly significant increase

N#Cc1ccc(C(c2ccc(C#N)cc2)n2cncn2)cc1 [Letrozole]
duration of Sertoli cell proliferation and testis size: highly significant increase
